Broadly, the IC50 is the point on the concentration scale where inhibition reaches its midpoint. Low readings indicate inhibition by little substance, high ones a need for much substance.

The source of these data is US10017516B2, “BMP inhibitors and methods of use thereof” (The Brigham and Women's Hospital, Inc., priority 2013, dated 2018).

Molecules are shown by their SMILES.

Data set [1] can be described thus: In vitro metabolism in mouse and human liver microsomes and cytosols. The settings on record: for major metabolism in the presence of liver cytosol (aldehyde oxidase-mediated oxidation): 10 μM, 60 min, mouse and human; for glucuronide conjugates: with UDPGA. In kind it is in vitro ADME. (Microsomes from liver hold many membrane-bound enzymes, among them those of drug oxidation.)

In data set [2] the target is human ALK2 (Homo sapiens (Human), UniProt Q04771). Kind of data set: LANCE Ultra ULight enzymatic assay, ALK2. In kind it is biochemical. The settings on record: 10 μM ATP. A general note: TR-FRET usually uses a lanthanide donor and a delayed reading to cut background.
A short description of data set [3]: In vitro metabolism in human liver microsomes and cytosols. In kind it is in vitro ADME.

Sequence of human ALK2 (Q04771 21-509): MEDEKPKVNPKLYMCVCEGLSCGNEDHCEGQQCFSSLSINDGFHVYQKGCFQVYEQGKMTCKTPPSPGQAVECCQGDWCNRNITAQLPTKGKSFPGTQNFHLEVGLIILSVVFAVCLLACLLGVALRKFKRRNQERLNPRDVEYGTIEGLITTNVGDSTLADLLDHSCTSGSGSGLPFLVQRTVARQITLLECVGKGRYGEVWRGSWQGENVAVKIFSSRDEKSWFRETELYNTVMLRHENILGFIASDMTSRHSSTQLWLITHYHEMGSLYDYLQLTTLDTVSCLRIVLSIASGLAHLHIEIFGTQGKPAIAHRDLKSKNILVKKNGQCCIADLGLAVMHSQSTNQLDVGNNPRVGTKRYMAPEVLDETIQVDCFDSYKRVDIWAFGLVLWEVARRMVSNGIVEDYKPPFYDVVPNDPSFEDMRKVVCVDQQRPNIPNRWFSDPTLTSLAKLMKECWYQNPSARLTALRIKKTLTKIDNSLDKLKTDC

`C[C@@H]1CNC[C@H](C)N1c1ccc(-c2cnc3c(-c4ccnc5ccccc45)cnn3c2)cc1` [compound 2, 4-(6-(4-((2R,6S)-2,6-dimethylpiperazin-1-yl)phenyl)pyrazolo[1,5-a]pyrimidin-3-yl)quinoline]: in data set [1], the “major metabolism in the presence of liver cytosol (aldehyde oxidase-mediated oxidation)” value is recorded as “oxidation of the alpha-carbon of quinoline nitrogen, leading to M450c” and the glucuronide conjugates entry is on record as “not observed”.
The compound `Cc1ccc2c(-c3cnn4cc(-c5ccc(OCCN6CCCCC6)cn5)cnc34)cccc2n1` [Compound 48′, 2-methyl-5-(6-(5-(2-(piperidin-1-yl)ethoxy)pyridin-2-yl)pyrazolo[1,5-a]pyrimidin-3-yl)quinoline] yielded an IC50 in data set [2] of 85 nM.
Regarding `Cc1cc(-c2cnn3cc(-c4ccc(N5CCNCC5)nc4)cnc23)c2ccccc2n1` [compound 12, 2-methyl-4-(6-(6-(piperazin-1-yl)pyridin-3-yl)pyrazolo[1,5-a]pyrimidin-3-yl)quinoline], in data set [3] (10 μM, 1 hr, HLM + human cytosol), the “oxidative metabolites in incubation without NADPH (AO mediated metabolism)” value is given as “Oxidative metabolites were not observed”. Also, in data set [3] (KCN 1 mM), the “cyanide adduct (KCN trapping)” value is recorded as “A major cyanide adduct was observed”. In addition, the glucuronide conjugates result in data set [3] (UDPGA 4 mM) was “Glucuronide conjugates were not observed”. The aniline metabolites result in data set [3] (human liver microsomal preparations) is recorded as “An aniline derivative was observed”.
Take `c1ccc2c(-c3cnn4cc(-c5ccc(C6CCNCC6)cc5)cnc34)ccnc2c1` [Compound 48]: in data set [1], the “major metabolism in the presence of liver cytosol (aldehyde oxidase-mediated oxidation)” value is listed as “metabolized mainly through the oxidation of the quinoline ring” and the glucuronide conjugates entry is reported as “not observed”. Further, in data set [1] (GSH 2 mM), the “GSH trapping of soft electrophiles” value was “not observed”. In data set [1] (KCN 0.1 mM), the “cyanide adducts (reactive intermediate trapping with KCN)” value is reported as “not observed”.
